# PMC9452538, “The antimicrobial peptide LI14 combats multidrug-resistant bacterial infections” (Communications Biology, 2022)
# Like-named read-outs stand apart in the source and are kept apart here. Peptide text beside a SMILES is read from it.
# Tests used:
# [1] = system: E. coli B2; assay: Galleria mellonella infection model; type: in vivo; settings: E. coli B2 infected G. mellonella; 50 mg/kg of LI14 at 1 h after infection; 7 days; n = 8
# Experimental: (§1) Galleria mellonella larvae (supplied by Huiyude Biotech Company, Tianjin, China) were separated into six groups (n = 8 biologically independent animals per group) and infection models by injecting MRSA T144 and E. coli B2 cultures, respectively (10 µL, 1.0 × 10^5 CFUs per larvae) into the right posterior gastropoda[42],[48]. The infected larvae were treated by giving LI14 peptide (10, 20, 50 mg/kg), ampicillin/rifampicin (10 mg/kg) or a mixture of LI14 with ampicillin/rifampicin (10 + 10 mg/kg) in the left posterior gastropoda after 1 h infection, with the PBS injection group serving as a control treatment. Within 7 days, survival rates of Galleria mellonella larvae were inspected and recorded.
# [2] = system: MRSA T144; assay: Galleria mellonella infection model; type: in vivo; settings: MRSA T144 infected G. mellonella; 50 mg/kg of LI14 at 1 h after infection; 7 days; n = 8
# Experimental: as §1
# [3] = system: K. pneumoniae ATCC 700603; assay: microbe, parasite or virus in culture; type: cell-based, Klebsiella pneumoniae; settings: ATCC 700603
# Method in brief: (§2)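 Standard CLSI broth microdilution (2021 guidelines) in MHB with exponential-phase inoculum.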
# [4] = system: K. pneumoniae D120 (mcr-8); assay: microbe, parasite or virus in culture; type: cell-based, Klebsiella pneumoniae; settings: D120 (mcr-8)
# Method in brief: as §2
# [5] = system: MRSA T144; assay: microbe, parasite or virus in culture; type: cell-based, Staphylococcus aureus; settings: T144
# Method in brief: as §2
# [6] = system: S. aureus ATCC 29213; assay: microbe, parasite or virus in culture; type: cell-based, Staphylococcus aureus; settings: ATCC 29213
# Method in brief: as §2
# [7] = system: E. coli B2; type: cell-based, Escherichia coli; settings: E. coli B2
# Experimental: (§3) MRSA T144 and E. coli B2 in the exponential growth phase were incubated with LI14 peptide supplemented with 10 mM Na^+, K^+, Mg^2+, 10% Dulbecco’s modified Eagle medium (DMEM), and 10% fetal bovine serum (FBS) for 16–18 h. The stability of LI14 was evaluated by the change of its antibacterial activity under different conditions.
# (§4) LI14 were preincubated for 1 h at various temperatures (40–121 °C), pH (2–12), and proteases (pepsin, trypsin, and papain, final concentration 1 mg/mL). […] Following the incubation with the proteases, the leftover protease was precipitated with acetonitrile and removed by centrifugation at 3000 × g, followed by a MIC test.
# (§5) Supplementary Table 4 Thermal, pH, salts and protease stability of AMPs against
# (§6) MRSA T144 and E. coli B2 (MIC, μg/mL).
# (§7) Treatment MRSA T144 E. coli B2
# [8] = system: MRSA 1518; assay: microbe, parasite or virus in culture; type: cell-based, Staphylococcus aureus; settings: 1518
# Method in brief: as §2
# [9] = system: MRSA 1530; assay: microbe, parasite or virus in culture; type: cell-based, Staphylococcus aureus; settings: 1530
# Method in brief: as §2
# [10] = system: MRSA T144; type: cell-based, Staphylococcus aureus; settings: MRSA T144
# Experimental: as §3, §4, §5, §6, §7
# [11] = system: E. faecium 5F-10; assay: microbe, parasite or virus in culture; type: cell-based, Enterococcus faecium; settings: 5F-10
# Method in brief: as §2
# [12] = peptide preincubated 1 h at 40℃
# [13] = peptide preincubated 1 h at 60℃
# [14] = peptide preincubated 1 h at 80℃
# [15] = peptide preincubated 1 h at pH 8, readjusted to pH 7.2
# [16] = peptide preincubated 1 h at pH 12, readjusted to pH 7.2
structure (smiles),measurement,setting,value
CC[C@H](C)[C@H](NC(=O)[C@H](CCCNC(=N)N)NC(=O)[C@H](CS)NC(=O)[C@H](CC(C)C)NC(=O)[C@H](CCCCN)NC(=O)[C@H](CCCCN)NC(=O)[C@H](CC(C)C)NC(=O)[C@@H](NC(=O)[C@H](CCCNC(=N)N)NC(=O)[C@H](CS)NC(=O)[C@H](CC(C)C)NC(=O)[C@H](CCCCN)NC(=O)[C@H](CCCCN)NC(=O)[C@@H](N)CC(C)C)[C@@H](C)CC)C(N)=O [LI14] (H-LKKLCRILKKLCRI-NH2),Survival rate of larvae,[1],75%
same,Survival rate of larvae,[2],100%
same,MIC,[3],32 µg/mL
same,MIC,[4],32 µg/mL
same,MIC,[5],4 µg/mL
same,MIC,[6],8 µg/mL
same,MIC,[7]; Control,4 µg/mL
same,MIC,[7]; KCl 10 mM,4 µg/mL
same,MIC,[7]; NaCl 10 mM,4 µg/mL
same,MIC,"[7]; Serum (10%), fetal bovine serum",4 µg/mL
same,MIC,[7]; [12],4 µg/mL
same,MIC,[7]; [13],4 µg/mL
same,MIC,[7]; [14],4 µg/mL
same,MIC,[7]; peptide preincubated 1 h at 121℃,4 µg/mL
same,MIC,"[7]; peptide preincubated 1 h at pH 2, readjusted to pH 7.2",4 µg/mL
same,MIC,"[7]; peptide preincubated 1 h at pH 4, readjusted to pH 7.2",4 µg/mL
same,MIC,"[7]; peptide preincubated 1 h at pH 6, readjusted to pH 7.2",4 µg/mL
same,MIC,[7]; [15],4 µg/mL
same,MIC,"[7]; peptide preincubated 1 h at pH 10, readjusted to pH 7.2",4 µg/mL
same,MIC,[7]; [16],4 µg/mL
same,MIC,[8],64 µg/mL
same,MIC,[9],64 µg/mL
same,MIC,[10]; Control,4 µg/mL
same,MIC,[10]; [12],4 µg/mL
same,MIC,[10]; [13],4 µg/mL
same,MIC,[10]; [14],4 µg/mL
same,MIC,[10]; [15],4 µg/mL
same,MIC,[10]; [16],4 µg/mL
same,MIC,[10]; peptide preincubated 1 h with Pepsin 1 mg/mL,4 µg/mL
same,MIC,[11],64 µg/mL
